The source of these data is publication PMC10791743, “Selective CK1α degraders exert antiproliferative activity against a broad range of human cancer cell lines” (Nature Communications, 2024).

The experiment deals with β-catenin. In words: HiBiT-β-catenin stabilization, live-cell kinetic (HEK293 cells). The experiment is classed as cell-based. Here is the method: Next, TMT-proteomics studies were performed to determine broader degradation selectivity profiles of our two lead compounds. […] As expected, increased protein levels of p53, p21, and β-catenin were detected in the treated cells. To investigate the relationship between β-catenin stabilization relative to CK1α degradation, kinetic monitoring of endogenously tagged HiBiT-β-catenin was performed in live cells and compared to our measurements of CK1α degradation kinetics. Treatment of cells with the lead compounds from each series led to dose-dependent stabilization of β-catenin levels with slower kinetics compared to the observed rapid degradation of CK1α. […]
White 96-well assay plates (Corning, Cat. # 3017) were seeded with 30,000 cells/well in growth media for CK1α-HiBiT HEK293 LgBiT stable and HiBiT-β-catenin HEK293 LgBiT stable and incubated overnight at 37 °C and 5% CO2. […] Luminescence was allowed to equilibrate for all plates for 2.5 h. […] Luminescence was read every 5 min for 24 h. At the end of all 24-h cycles, CellTiter Glo 2.0 (Promega, Cat. #G9242) was added to the plates, incubated for at least 10 min and luminescence was read using the GloMax Discover.
Relative protein level was determined based on normalization to the DMSO control and reported at Fractional RLUs. […]
(In general: With HiBiT, luminescence reflects the tagged protein that the partner subunit can reach.)

Consider `O=C1CCC(N2Cc3cc(Nc4noc5ccccc45)ccc3C2=O)C(=O)N1` (stereo not shown) [SJ3149], for which the “Time to detectable increase of β-catenin” value is at most 30 min.
